Test results as given in patent US12522601B2, “1,3,4-oxadiazole derivative compounds as histone deacetylase 6 inhibitor, and the pharmaceutical composition comprising the same” (CHONG KUN DANG PHARMACEUTICAL CORP., priority 2020, dated 2026).

Legend:
[1] = biological target: T1, human recombinant HDAC6 (Homo sapiens, UniProt Q9UBN7); experiment: In vitro HDAC enzyme activity inhibition assay, HDAC6 (HDAC Fluorimetric Drug Discovery Kit); type: biochemical; conditions: for HDAC6 Selectivity (fold): HDAC6 versus HDAC1; for IC50: human recombinant HDAC6, same protocol as the HDAC1 test
T1 construct: purchased Calbiochem Inc. 382180
T1 sequence (Q9UBN7 1-1215): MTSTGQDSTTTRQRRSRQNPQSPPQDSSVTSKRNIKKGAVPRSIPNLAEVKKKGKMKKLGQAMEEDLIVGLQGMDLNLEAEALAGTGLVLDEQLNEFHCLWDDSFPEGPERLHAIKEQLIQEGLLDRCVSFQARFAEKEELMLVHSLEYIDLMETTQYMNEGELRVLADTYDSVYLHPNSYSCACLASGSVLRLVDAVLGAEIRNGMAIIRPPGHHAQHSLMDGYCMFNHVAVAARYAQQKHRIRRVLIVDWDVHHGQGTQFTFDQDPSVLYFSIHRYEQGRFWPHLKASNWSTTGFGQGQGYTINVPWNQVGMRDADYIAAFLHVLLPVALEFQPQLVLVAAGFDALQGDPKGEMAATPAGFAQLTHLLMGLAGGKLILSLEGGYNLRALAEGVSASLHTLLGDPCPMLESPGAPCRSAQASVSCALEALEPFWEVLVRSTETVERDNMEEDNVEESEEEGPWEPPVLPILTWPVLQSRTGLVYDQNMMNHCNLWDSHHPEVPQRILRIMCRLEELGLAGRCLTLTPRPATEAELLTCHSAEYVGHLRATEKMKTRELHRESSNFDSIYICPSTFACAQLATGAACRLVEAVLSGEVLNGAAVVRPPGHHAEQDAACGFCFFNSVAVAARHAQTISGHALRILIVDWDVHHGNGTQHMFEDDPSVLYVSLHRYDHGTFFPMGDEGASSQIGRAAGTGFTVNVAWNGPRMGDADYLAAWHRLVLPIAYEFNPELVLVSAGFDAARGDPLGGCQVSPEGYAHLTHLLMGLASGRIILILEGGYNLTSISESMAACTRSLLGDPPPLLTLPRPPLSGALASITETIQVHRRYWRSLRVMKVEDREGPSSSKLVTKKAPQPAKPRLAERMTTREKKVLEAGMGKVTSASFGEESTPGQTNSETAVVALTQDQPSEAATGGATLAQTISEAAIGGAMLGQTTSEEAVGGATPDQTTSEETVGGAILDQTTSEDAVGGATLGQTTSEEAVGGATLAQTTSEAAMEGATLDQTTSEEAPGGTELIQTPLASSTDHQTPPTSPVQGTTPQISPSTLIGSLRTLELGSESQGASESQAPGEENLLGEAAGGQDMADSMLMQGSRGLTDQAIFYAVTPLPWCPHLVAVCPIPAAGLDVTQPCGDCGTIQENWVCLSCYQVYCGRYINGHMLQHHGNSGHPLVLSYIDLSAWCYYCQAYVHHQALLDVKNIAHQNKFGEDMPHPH
Procedure, shortened: (§1)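 Fluorimetric deacetylase kit; 0.3 μg human recombinant enzyme with 10 μM Fluor de Lys-SIRT1 substrate, 60 min at 30° C, then developer 30 min. Fluorescence read at Ex 360/Em 460; IC50 from 5-fold compound dilutions. HDAC1 and HDAC6 run by the same protocol.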

[2] = biological target: T2, human recombinant HDAC1 (Homo sapiens, UniProt Q13547); experiment: In vitro HDAC enzyme activity inhibition assay, HDAC1 (HDAC Fluorimetric Drug Discovery Kit); type: biochemical; conditions: human recombinant HDAC1, Fluor de Lys-SIRT1 substrate 10 μM, 30° C. for 60 minutes
T2 construct: purchased Enzo Life Sciences, Inc. BML-SE456
Procedure, shortened: as §1

T2 sequence (Q13547 whole entry): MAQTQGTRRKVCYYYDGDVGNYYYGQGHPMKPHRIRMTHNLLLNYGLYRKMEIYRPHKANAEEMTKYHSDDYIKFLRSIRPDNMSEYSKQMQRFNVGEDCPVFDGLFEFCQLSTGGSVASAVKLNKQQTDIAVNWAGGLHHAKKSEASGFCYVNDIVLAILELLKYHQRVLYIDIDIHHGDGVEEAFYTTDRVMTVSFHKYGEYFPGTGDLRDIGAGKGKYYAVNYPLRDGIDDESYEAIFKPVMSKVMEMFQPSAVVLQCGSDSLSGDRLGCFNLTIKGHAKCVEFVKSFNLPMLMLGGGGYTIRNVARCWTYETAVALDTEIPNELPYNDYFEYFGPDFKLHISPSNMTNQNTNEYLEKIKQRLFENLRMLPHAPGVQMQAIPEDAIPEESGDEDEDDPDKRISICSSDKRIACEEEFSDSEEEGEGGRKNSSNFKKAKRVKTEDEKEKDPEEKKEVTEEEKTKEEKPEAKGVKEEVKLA

HDAC6 Selectivity (fold) [1]	IC50 [1]	IC50 [2]	Structure (SMILES)
183 fold	273 nM	> 50000 nM	CCN1CCN(C(=O)N(Cc2cn3ccc(-c4nnc(C(F)F)o4)cc3n2)c2cccc(F)c2)CC1 [Compound 4084, N-((7-(5-(difluoromethyl)-1,3,4-oxadiazol-2-yl)imidazo[1,2-a]pyridin-2-yl)methyl)-4-ethyl-N-(3-fluorophenyl)piperazine-1-carboxamide]
160 fold	312 nM	> 50000 nM	CS(=O)(=O)N1CC(C(=O)N(Cc2cn3ccc(-c4nnc(C(F)F)o4)cc3n2)c2ccccc2)C1 [Compound 4173, N-((7-(5-(difluoromethyl)-1,3,4-oxadiazol-2-yl)imidazo[1,2-a]pyridin-2-yl)methyl)-1-(methylsulfonyl)-N-phenylazetidine-3-carboxamide]
168 fold	298 nM	> 50000 nM	CC(CO)N1CCN(C(=O)N(Cc2cn3ccc(-c4nnc(C(F)F)o4)cc3n2)c2ccccc2)CC1 (stereo not drawn) [Compound 4035, N-((7-(5-(difluoromethyl)-1,3,4-oxadiazol-2-yl)imidazo[1,2-a]pyridin-2-yl)methyl)-4-(1-hydroxypropan-2-yl)-N-phenylpiperazine-1-carboxamide]
631 fold	79.2 nM	> 50000 nM	FC(F)c1nnc(-c2ccn3cc(Cc4ccccc4)nc3c2)o1 [Compound 3009, 2-(2-benzylimidazo[1,2-a]pyridin-7-yl)-5-(difluoromethyl)-1,3,4-oxadiazole]
373 fold	134 nM	> 50000 nM	CC(CO)N1CC(C(=O)N(Cc2cn3ccc(-c4nnc(C(F)F)o4)cc3n2)c2cccc(F)c2)C1 (stereo not drawn) [Compound 4191, N-((7-(5-(difluoromethyl)-1,3,4-oxadiazol-2-yl)imidazo[1,2-a]pyridin-2-yl)methyl)-N-(3-fluorophenyl)-1-(1-hydroxypropan-2-yl) azetidine-3-carboxamide]
112 fold	447 nM	> 50000 nM	CC(=O)N1CC(C(=O)N(Cc2cn3ccc(-c4nnc(C(F)F)o4)cc3n2)c2ccccc2)C1 [Compound 4167, 1-acetyl-N-((7-(5-(difluoromethyl)-1,3,4-oxadiazol-2-yl)imidazo[1,2-a]pyridine-2-yl)methyl)-N-phenylazetidine-3-carboxamide]
268 fold	187 nM	> 50000 nM	COC(=O)N1CC(C(=O)N(Cc2cn3ccc(-c4nnc(C(F)F)o4)cc3n2)c2cccc(F)c2)C1 [Compound 4204, methyl 3-(((7-(5-(difluoromethyl)-1,3,4-oxadiazol-2-yl)imidazo[1,2-a]pyridin-2-yl)methyl)(3-fluorophenyl)carbamoyl) azetidine-1-carboxylate]
121 fold	413 nM	> 50000 nM	Cc1cccc(OCc2cn3ccc(-c4nnc(C(F)F)o4)cc3n2)c1 [Compound 3720, 2-(difluoromethyl)-5-(2-((m-tolyloxy)methyl)imidazo[1,2-a]pyridin-7-yl)-1,3,4-oxadiazole]
318 fold	157 nM	> 50000 nM	Fc1ccc(NCc2cn3ccc(-c4nnc(C(F)F)o4)cc3n2)cc1F [Compound 3671, N-((7-(5-(difluoromethyl)-1,3,4-oxadiazol-2-yl)imidazo[1,2-a]pyridin-2-yl)methyl)-3,4-difluoroaniline]
256 fold	195 nM	> 50000 nM	CCC(=O)N1CCN(C(=O)N(Cc2cn3ccc(-c4nnc(C(F)F)o4)cc3n2)c2cccc(F)c2)CC1 [Compound 4093, N-((7-(5-(difluoromethyl)-1,3,4-oxadiazol-2-yl)imidazo[1,2-a]pyridin-2-yl)methyl)-N-(3-fluorophenyl)-4-propionylpiperazine-1-carboxamide]
141 fold	354 nM	> 50000 nM	CCN1CCC(C(=O)N(Cc2cn3ccc(-c4nnc(C(F)F)o4)cc3n2)c2ccccc2)CC1 [Compound 4115, N-((7-(5-(difluoromethyl)-1,3,4-oxadiazol-2-yl)imidazo[1,2-a]pyridin-2-yl)methyl)-1-ethyl-N-phenylpiperidine-4-carboxamide]
228 fold	220 nM	> 50000 nM	O=C(C1CCC1)N1CC(C(=O)N(Cc2cn3ccc(-c4nnc(C(F)F)o4)cc3n2)c2cccc(F)c2)C1 [Compound 4200, 1-(cyclobutanecarbonyl)-N-((7-(5-(difluoromethyl)-1,3,4-oxadiazol-2-yl)imidazo[1,2-a]pyridine-2-yl)methyl)-N-(3-fluorophenyl) azetidine-3-carboxamide]
464 fold	108 nM	> 50000 nM	O=C(N1CCN(c2ncccn2)CC1)N(Cc1cn2ccc(-c3nnc(C(F)F)o3)cc2n1)c1cccc(F)c1 [Compound 4101, N-((7-(5-(difluoromethyl)-1,3,4-oxadiazol-2-yl)imidazo[1,2-a]pyridin-2-yl)methyl)-N-(3-fluorophenyl)-4-(pyrimidin-2-yl)piperazine-1-carboxamide]
91 fold	547 nM	> 50000 nM	O=C(C1CCN(c2ccccn2)CC1)N(Cc1cn2ccc(-c3nnc(C(F)F)o3)cc2n1)c1ccccc1 [Compound 4131, N-((7-(5-(difluoromethyl)-1,3,4-oxadiazol-2-yl)imidazo[1,2-a]pyridin-2-yl)methyl)-N-phenyl-1-(pyridin-2-yl)piperidine-4-carboxamide]
246 fold	203 nM	> 50000 nM	CC(CO)N1CCC(C(=O)N(Cc2cn3ccc(-c4nnc(C(F)F)o4)cc3n2)c2cccc(F)c2)CC1 (stereo not drawn) [Compound 4140, N-((7-(5-(difluoromethyl)-1,3,4-oxadiazol-2-yl)imidazo[1,2-a]pyridin-2-yl)methyl)-N-(3-fluorophenyl)-1-(1-hydroxypropan-2-yl)piperidine-4-carboxamide]
144 fold	347 nM	> 50000 nM	O=C(C1CCC1)N1CC(C(=O)N(Cc2cn3ccc(-c4nnc(C(F)F)o4)cc3n2)c2ccccc2)C1 [Compound 4170, 1-(cyclobutanecarbonyl)-N-((7-(5-(difluoromethyl)-1,3,4-oxadiazol-2-yl)imidazo[1,2-a]pyridine-2-yl)methyl)-N-phenylazetidine-3-carboxamide]
159 fold	315 nM	> 50000 nM	CS(=O)(=O)N1CCC(C(=O)N(Cc2cn3ccc(-c4nnc(C(F)F)o4)cc3n2)c2ccccc2)CC1 [Compound 4128, N-((7-(5-(difluoromethyl)-1,3,4-oxadiazol-2-yl)imidazo[1,2-a]pyridin-2-yl)methyl)-1-(methylsulfonyl)-N-phenylpiperidine-4-carboxamide]
98 fold	509 nM	> 50000 nM	O=C(C1CCN(C2CCOCC2)CC1)N(Cc1cn2ccc(-c3nnc(C(F)F)o3)cc2n1)c1ccccc1 [Compound 4120, N-((7-(5-(difluoromethyl)-1,3,4-oxadiazol-2-yl)imidazo[1,2-a]pyridin-2-yl)methyl)-N-phenyl-1-(tetrahydro-2H-pyran-4-yl)piperidine-4-carboxamide]
271 fold	185 nM	> 50000 nM	CCC(=O)N1CC(C(=O)N(Cc2cn3ccc(-c4nnc(C(F)F)o4)cc3n2)c2cccc(F)c2)C1 [Compound 4198]
159 fold	314 nM	> 50000 nM	CC(C)N1CCC(C(=O)N(Cc2cn3ccc(-c4nnc(C(F)F)o4)cc3n2)c2ccccc2)CC1 [Compound 4116, N-((7-(5-(difluoromethyl)-1,3,4-oxadiazol-2-yl)imidazo[1,2-a]pyridin-2-yl)methyl)-1-isopropyl-N-phenylpiperidine-4-carboxamide]
